Here are results for 16 molecules from US10864196B2, “Modulators of the integrated stress pathway” (Calico Life Sciences LLC, priority 2016, dated 2020).

pEC50: −log10 of the molar value.

The subject of the experiment is HEK293T cells carrying the ATF4 luciferase reporter. The experiment can be described thus: ATF4-Luc assay (in vitro model of VWMD). Conditions: Homo sapiens, HEK-293T, 1 μg/mL tunicamycin, 7 hours, One Glo luminescence. Type of experiment: cell-based. Here is the method:
In order to test exemplary compounds of the invention in a cellular context, a stable VWMD cell line was first constructed. The ATF4 reporter was prepared by fusing the human full-length ATF4 5′-UTR (NCBI Accession No. BC022088.2) in front of the firefly luciferase (FLuc) coding sequence lacking the initiator methionine as described in Sidrauski et al (eLife 2013). The construct was used to produce recombinant retroviruses using standard methods and the resulting viral supernatant was used to transduce HEK293T cells, which were then subsequently selected with puromycin to generate a stable cell line.
HEK293T cells carrying the ATF4 luciferase reporter were plated on polylysine coated 384-well plates (Greiner Bio-one) at 30,000 cells per well. Cells were treated the next day with 1 μg/mL tunicamycin and 200 nM of a compound of Formula (I) for 7 hours. Luminescence was measured using One Glo (Promega) as specified by the manufacturer. Cells were maintained in DMEM with L-glutamine supplemented with 10% heat-inactivated FBS (Gibco) and Antibiotic-Antimycotic solution (Gibco).
Table 2 below summarizes the EC50 data obtained using the ATF4-Luc assay for exemplary compounds of the invention.
What is called pEC50 is the negative decadic logarithm of the EC50, by convention in mol/L. Turning to `COc1ncc(OCc2nnc(C34CC(NC(=O)COc5ccc(Cl)c(F)c5)(C3)C4)o2)cc1C` [Compound 155, 2-(4-chloro-3-fluorophenoxy)-N-[3-(5-{[(6-methoxy-5-methylpyridin-3-yl)oxy]methyl}-1,3,4-oxadiazol-2-yl)bicyclo[1.1.1]pentan-1-yl]acetamide], the pEC50 was 6.00 to 6.60.

In the case of `Cc1cc(OCc2nnc(C34CC(NC(=O)COc5ccc(Cl)c(F)c5)(C3)C4)o2)cnc1C#N` [Compound 156, 2-(4-chloro-3-fluorophenoxy)-N-[3-(5-{[(6-cyano-5-methylpyridin-3-yl)oxy]methyl}-1,3,4-oxadiazol-2-yl)bicyclo[1.1.1]pentan-1-yl]acetamide], the pEC50 was 5.70 to 6.00.

Regarding `N#Cc1ccc(OCc2nnc(C34CC(NC(=O)COc5ccc(Cl)c(F)c5)(C3)C4)o2)cn1` [Compound 157, 2-(4-chloro-3-fluorophenoxy)-N-[3-(5-{[(6-cyanopyridin-3-yl)oxy]methyl}-1,3,4-oxadiazol-2-yl)bicyclo[1.1.1]pentan-1-yl]acetamide], the negative-log EC50 (pEC50) was 6.00 to 6.60.

Take `O=C(COc1ccc(Cl)cc1)NC12CC(c3nc(COc4ccc(Cl)c(Cl)c4)no3)(C1)C2` [Compound 158, 2-(4-chlorophenoxy)-N-(3-{3-[(3,4-dichlorophenoxy)methyl]-1,2,4-oxadiazol-5-yl}bicyclo[1.1.1]pentan-1-yl)acetamide]: the pEC50 is over 7.30.

With `O=C(COc1ccc(Cl)c(F)c1)NC12CC(c3nc(COc4cncc(C(F)(F)F)c4)no3)(C1)C2` [Compound 159, 2-(4-chloro-3-fluorophenoxy)-N-{3-[3-({[5-(trifluoromethyl)pyridin-3-yl]oxy}methyl)-1,2,4-oxadiazol-5-yl]bicyclo[1.1.1]pentan-1-yl}acetamide], the negative-log EC50 (pEC50) is 6.60 to 7.30.

Turning to `O=C(COc1ccc(Cl)c(F)c1)NC12CC(c3nc(COc4ccnc(C(F)(F)F)c4)no3)(C1)C2` [Compound 160, 2-(4-chloro-3-fluorophenoxy)-N-{3-[3-({[2-(trifluoromethyl)pyridin-4-yl]oxy}methyl)-1,2,4-oxadiazol-5-yl]bicyclo[1.1.1]pentan-1-yl}acetamide], the pEC50 is 6.60 to 7.30.

Turning to `O=C(COc1ccc(Cl)c(F)c1)NC12CC(c3nc(COc4ccc(C(F)(F)F)nc4)no3)(C1)C2` [Compound 161, 2-(4-chloro-3-fluorophenoxy)-N-{3-[3-({[6-(trifluoromethyl)pyridin-3-yl]oxy}methyl)-1,2,4-oxadiazol-5-yl]bicyclo[1.1.1]pentan-1-yl}acetamide], the negative-log EC50 (pEC50) was 6.60 to 7.30.

In the case of `O=C(COc1ccc(Cl)c(F)c1)NC12CC(c3nc(COc4cnc(C(F)(F)F)c(Cl)c4)no3)(C1)C2` [Compound 162, 2-(4-chloro-3-fluorophenoxy)-N-{3-[3-({[5-chloro-6-(trifluoromethyl)pyridin-3-yl]oxy}methyl)-1,2,4-oxadiazol-5-yl]bicyclo[1.1.1]pentan-1-yl}acetamide], the negative-log EC50 (pEC50) is 6.60 to 7.30.

Turning to `O=C(COc1ccc(Cl)c(F)c1)NC12CC(c3nc(COc4ccc(C5CC5)nc4)no3)(C1)C2` [Compound 163, 2-(4-chloro-3-fluorophenoxy)-N-[3-(3-{[(6-cyclopropylpyridin-3-yl)oxy]methyl}-1,2,4-oxadiazol-5-yl)bicyclo[1.1.1]pentan-1-yl]acetamide], the negative logarithm of the EC50 (pEC50) is 6.00 to 6.60.

As for `COCc1nnc([C@]23CC[C@](NC(=O)COc4ccc(Cl)c(F)c4)(CC2)CC3=O)o1` [Compound 164, 2-(4-chloro-3-fluorophenoxy)-N-{4-[5-(methoxymethyl)-1,3,4-oxadiazol-2-yl]-3-oxobicyclo[2.2.2]octan-1-yl}acetamide], the pEC50 was 6.00 to 6.60.

In the case of `COCc1nnc(C23CCC(NC(=O)COc4ccc(Cl)c(F)c4)(CC2)CC3O)o1` (stereo not shown) [Compound 165, 2-(4-chloro-3-fluorophenoxy)-N-{3-hydroxy-4-[5-(methoxymethyl)-1,3,4-oxadiazol-2-yl]bicyclo[2.2.2]octan-1-yl}acetamide], the negative logarithm of the EC50 (pEC50) is 6.00 to 6.60.

Take `O=C(COc1ccc(Cl)c(F)c1)NC12CCC(c3nc(COc4ccc(C(F)(F)F)nc4)no3)(CC1)C(O)C2` (stereo not shown) [Compound 166, 2-(4-chloro-3-fluorophenoxy)-N-{3-hydroxy-4-[3-({[6-(trifluoromethyl)pyridin-3-yl]oxy}methyl)-1,2,4-oxadiazol-5-yl]bicyclo[2.2.2]octan-1-yl}acetamide]: the negative-log EC50 (pEC50) was 6.00 to 6.60.

In the case of `O=C(COc1ccc(Cl)c(F)c1)NC12CCC(c3nc(COc4ccnc(C(F)(F)F)c4)no3)(CC1)C(O)C2` (stereo not shown) [Compound 167, 2-(4-chloro-3-fluorophenoxy)-N-{3-hydroxy-4-[3-({[2-(trifluoromethyl)pyridin-4-yl]oxy}methyl)-1,2,4-oxadiazol-5-yl]bicyclo[2.2.2]octan-1-yl}acetamide], the pEC50 is 6.60 to 7.30.

In the case of `O=C(COc1ccc(Cl)c(F)c1)NC12CC(c3nc(COc4ccc(Cl)c(F)c4)c[nH]3)(C1)C2` [Compound 168, 2-(4-chloro-3-fluorophenoxy)-N-(3-{4-[(4-chloro-3-fluorophenoxy)methyl]-1H-imidazol-2-yl}bicyclo[1.1.1]pentan-1-yl)acetamide], the pEC50 is over 7.30.

Turning to `O=C(COc1ccc(Cl)c(F)c1)NC12CC(c3nc(COc4ccc(C(F)(F)F)nc4)c[nH]3)(C1)C2` [Compound 169, 2-(4-chloro-3-fluorophenoxy)-N-{3-[4-({[6-(trifluoromethyl)pyridin-3-yl]oxy}methyl)-1H-imidazol-2-yl]bicyclo[1.1.1]pentan-1-yl}acetamide], the negative-log EC50 (pEC50) is under 5.70.

Take `O=C(COc1ccc(Cl)c(F)c1)NC12CCC(c3nnc(Oc4ccc(Cl)c(F)c4)o3)(CC1)C(O)C2` (stereo not shown) [Compound 170, 2-(4-chloro-3-fluorophenoxy)-N-{4-[5-(4-chloro-3-fluorophenoxy)-1,3,4-oxadiazol-2-yl]-3-hydroxybicyclo[2.2.2]octan-1-yl}acetamide]: the pEC50 is over 7.30.
